Entries after “also recorded” stand apart in the source; their conditions may differ.
Assays:
[1] = biological target: LeCCD1a (Solanum lycopersicum, UniProt Q6E4P5); assay: In vitro LeCCD1a enzyme assay (recombinant cell-free extract, colourimetric, apo-8′-carotenal substrate); format: biochemical, tomato (Solanum lycopersicum); settings: for IC50 / LeCCD1a (9,10/9′,10′) Inhibition @ 100 μM (%): E. coli cell extract with recombinant CCD; for IC50: read-out: LeCCD1a (9,10/9′,10′) IC50; for inhibition at 100 µM: read-out: LeCCD1a (9,10/9′,10′) Inhibition @ 100 μM (%); for LeCCD1a (9,10/9′,10′) Inhibition @ 100 μM (%): 100 μM inhibitor
Sequence of LeCCD1a (Solanum lycopersicum, UniProt Q6E4P5) (Q6E4P5 1-545): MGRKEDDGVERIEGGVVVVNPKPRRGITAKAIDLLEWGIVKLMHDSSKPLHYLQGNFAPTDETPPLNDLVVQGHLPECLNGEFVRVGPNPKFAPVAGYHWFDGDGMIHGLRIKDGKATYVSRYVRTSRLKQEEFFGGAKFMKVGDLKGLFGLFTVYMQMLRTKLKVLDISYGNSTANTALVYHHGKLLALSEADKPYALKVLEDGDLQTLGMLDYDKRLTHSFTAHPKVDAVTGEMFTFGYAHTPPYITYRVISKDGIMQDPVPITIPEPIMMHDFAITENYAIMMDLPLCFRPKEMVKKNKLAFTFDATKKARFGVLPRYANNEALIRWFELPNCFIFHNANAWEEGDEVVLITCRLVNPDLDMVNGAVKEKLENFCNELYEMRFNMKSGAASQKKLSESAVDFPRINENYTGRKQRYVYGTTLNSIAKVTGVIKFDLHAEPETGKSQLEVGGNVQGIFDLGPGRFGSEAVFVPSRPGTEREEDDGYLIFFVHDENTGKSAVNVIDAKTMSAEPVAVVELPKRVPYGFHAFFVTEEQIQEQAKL
Protocol: In vitro LeCCD1a enzyme assay—We over-expressed LeCCD1a in E. coli, as a GST-fusion protein (supplemental methods). The in vitro assay of LeCCD1a was based on reported methods (37), and was carried out in a 200 μl total volume in a 96-well microtitre plate, with the signal detected at 485 nm. To prepare substrate solution for each assay, 5 μl of 4% (w/v in ethanol) apo-8′-carotenal (Sigma) was mixed with 25 μl of 4% (w/v in ethanol) β-octylglucoside (Sigma), the ethanol was then evaporated under nitrogen, and the residue dissolved in 150 μl PBS buffer containing 10 mM sodium ascorbate by incubation at 20° C. for 30 min. 50 μl of cell-free extract containing recombinant LeCCD1a was added, and the reactions monitored over 30 min at 20° C.
(§1) For the production of cell-free extracts of LeCCD1a and LeNCED1, cultures were grown to an OD of 0.6 at 37° C., then isopropyl β-D-1-thiogalactopyranoside (IPTG) was added to 0.2 mM and the cultures grown overnight at 20° C. The cells (200 ml cultures) were harvested by centrifugation (5000 rpm, 10 min) and the pellet re-suspended in 4 ml PBS, 0.1% Triton-X 100. Lysozyme was added to a final concentration of 25 μg ml^−1 and the solution incubated at room temperature for 15 min before sonication (3×30 s at 18Ω) on ice. The lysate was then centrifuged (13000 rpm, 15 min, 4° C.) and the supernatant used for the assay.
(§2) Specificity of inhibition in vitro for tomato genes LeNCED1 and LeCCD1a—In order to screen the inhibitors against enzymes which cleave carotenoids at the 9,10 position, we used the recombinant tomato LeCCD1a protein (44), because this type of enzyme can be studied using an in vitro colourimetric assay with β-apo-8′-carotenal as substrate (37). To establish the specificity of the inhibitors, they were also tested against the tomato LeNCED1 recombinant protein which cleaves 9-cis carotenoids at the 11,12 position (45). For this enzyme, the cleavage reaction was monitored by C18 reverse phase HPLC, using 9′-cis-neoxanthin as substrate.

[2] = biological target: T1, LeNCED1 (Solanum lycopersicum, UniProt O24023); assay: In vitro NCED enzyme assay (recombinant LeNCED1 cell-free extract, HPLC, 9′-cis-neoxanthin substrate); format: biochemical, tomato; settings: for LeNCED1 (11,12) Inhibition @ 100 μM (%): 100 μM inhibitor, E. coli cell extract with recombinant CCD
T1 construct: made in house; host or cells: E. coli Rosetta (DE3); crude cell-free extract
T1 sequence (O24023 17-605): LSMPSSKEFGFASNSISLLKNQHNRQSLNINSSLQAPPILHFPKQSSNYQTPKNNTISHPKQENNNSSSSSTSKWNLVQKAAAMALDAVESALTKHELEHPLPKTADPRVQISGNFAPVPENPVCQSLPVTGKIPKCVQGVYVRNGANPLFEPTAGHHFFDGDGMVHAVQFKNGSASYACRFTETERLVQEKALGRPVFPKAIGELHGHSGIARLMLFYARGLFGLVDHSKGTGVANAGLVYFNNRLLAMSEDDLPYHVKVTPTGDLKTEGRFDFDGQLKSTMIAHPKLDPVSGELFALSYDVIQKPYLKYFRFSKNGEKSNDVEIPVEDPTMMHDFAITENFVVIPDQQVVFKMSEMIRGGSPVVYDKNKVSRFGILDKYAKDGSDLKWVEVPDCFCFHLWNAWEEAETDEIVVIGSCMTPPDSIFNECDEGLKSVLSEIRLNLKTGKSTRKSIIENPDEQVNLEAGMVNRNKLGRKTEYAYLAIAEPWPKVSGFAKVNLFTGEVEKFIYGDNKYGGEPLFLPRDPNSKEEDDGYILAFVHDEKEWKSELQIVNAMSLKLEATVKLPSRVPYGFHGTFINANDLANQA
Protocol: In vitro NCED enzyme assay—We over-expressed LeNCED1 in E. coli, as an N-terminal His6-fusion protein (supplemental methods). Cell-free extract containing recombinant LeNCED1 was prepared in 100 mM bis-tris buffer (pH 6.7). 15 μl extract was pre-activated by addition of iron(II) sulphate (20 mM, 1 μl) and ascorbic acid (20 mM, 1 μl) on ice for 2 min, prior to use. This aliquot of enzyme was then added to an assay (150 μl total volume) containing 100 mM bis-tris buffer (pH 6.7), 0.05% v/v Triton X-100, 1.0 mg/ml catalase, and 3 μg 9′-cis-neoxanthin. The 9′-cis-neoxanthin substrate was prepared as described in supplemental methods. The enzyme assay was incubated for 15 min in the dark at 20° C. Water (700 μl) was then added, and the products extracted with ethyl acetate (3×1 ml). The organic solvent was removed at reduced pressure, the residue was dissolved in methanol (200 μl), and then 100 μl was injected onto a Phenomenex C18 reverse phase HPLC column, and a gradient of 5-10% methanol in acetonitrile/0.05% triethylamine was applied at 0.5 ml/min over 20 min, detecting at 440 nm. NCED inhibition assays contained 1-100 μM inhibitor; inhibition was calculated from the product formation after 15 min, compared to a control assay with no inhibitor present.
as §1, §2

[3] = test system: whole Arabidopsis plants; assay: Shoot branching in whole Arabidopsis plants grown in agar; format: in vivo; settings: for unintended effects on whole Arabidopsis plants: applied to whole plants; for branching phenotype of whole plants (in words): plants grown under sterile conditions in agar
Protocol: Branching phenotypes of Arabidopsis plants grown in agar media for 45 days supplemented with inhibitor D6. Images are shown: (a) Col-0 (WT) without inhibitor; (b) max3-9 mutant without inhibitor; (c) Col-0 with 100 μM D6. The numbers (d) of rosette branches were quantified. Error bars represent standard error of the mean, n=6 to 12.
Stimulation of shoot branching in whole Arabidopsis plants—Inhibitors were also applied to Arabidopsis whole plants grown under sterile conditions in agar. […] Inhibitor treated plants were intermediate (mean of approximately 2 branches) and so partially mimicked max3-9 (FIG. 6d).

[4] = test system: LeCCD1a; assay: In vivo enzyme assay in β-carotene-producing E. coli expressing LeCCD1a; format: cell-based, Solanum lycopersicum; settings: 100 μM inhibitor, 16 hours; FIG. 4
Description: In vivo enzyme assays in E. coli—The genes of interest (supplemental Table S1) were cloned into the vector pET30c (Novagen) fused directly to the initial ATG codon with no tag, or into pGEX-4T such that the gene was fused to an N-terminal GST tag. All genes were full length except AtCCD7, which had the chloroplast signal sequence removed (supplemental methods). […] Therefore, this construct was used in subsequent assays. The plasmids were transferred to the E. coli expression strain BL21(DE3), harbouring pAC-BETA (38), and therefore producing β-carotene.
For each inhibitor assay, 2.5 ml LB media with the appropriate antibiotics (25 μg ml^−1 chloramphenicol and 50 μg ml^−1 kanamycin or 100 μg ml^−1 ampicillin) and 2.5 μM IPTG, was prepared. Inhibitors (0.1 M in 100% ethanol) were added to the media to a final concentration of 100 μM. The media was then inoculated with 0.25 ml of overnight culture (grown at 37° C. with the appropriate antibiotics) and incubated with shaking (200 rpm) at 28° C. for 16 hours. One ml of culture was harvested by microcentrifugation and resuspended thoroughly in 1 ml ethanol containing 0.2% Triton X-100. After vortexing, the extract was incubated at room temperature in the dark for 3 hours, again vortexed and then spun in a microcentrifuge for 5 min at 13000 rpm. The supernatant was removed and the O.D.453-O.D.550 was measured. The amount of β-carotene was calculated using a standard curve generated from a dilution series of β-carotene (Sigma) in ethanol with 0.2% Triton X-100; the absolute levels of β-carotene are shown in FIG. 8. The relative inhibition was calculated by the equation: (Ci−Cc)/(C1−Cc)×100, where Ci is the carotenoid level with inhibitor and CCD present, Cc is the level with CCD but without the inhibitor and C1 is the level in a strain where lacZ is expressed instead of the CCD, and no inhibitor is present. Thus the increase in β-carotene due to inhibition of the CCD […] was expressed relative to the maximum possible β-carotene content when CCD is absent (C1−Cc).
In vivo activity of inhibitors applied to E. coli strains expressing CCDs—Coloured E. coli strains that produce various carotenoids can be constructed by expression of enzymes for carotenoid synthesis (26). Upon co-expression of the appropriate CCD, the bacteria lose their colour due to cleavage of the carotenoids to colourless products (4,6,27). This technique was employed here to further explore the specificity of inhibitors, and to test their activity in vivo. The level of carotenoid in each CCD-expressing strain was compared to the level of the carotenoid in a control strain producing β-carotene but lacking any CCD gene. The difference in the carotenoid levels gave a measure of CCD activity, and inhibition of this activity was measured by addition of inhibitors to the growing medium.
The inhibitors were tested against four β-carotene-producing E. coli strains (supplemental Table S1). Three of the strains expressed highly divergent CCDs that cleave at the 9,10 position: AtCCD7 from Arabidopsis (21) and MmBCO2 from mouse (6) which both cleave at a single site (9,10 or 9′,10′ but not both), and the tomato enzyme LeCCD1a (44) which cleaves at both sites in the same substrate molecule (9,10/9′,10′ activity). The fourth strain expressed another mouse CCD, MmBCO1 (47), which cleaves centrally at 15,15′. […]

| Compound | inhibition at 100 µM [1] [%] | unintended effects on whole Arabidopsis plants [3] | LeCCD1a (9,10/9′,10′) Inhibition @ 100 μM (%) [1] [%] | LeNCED1 (11,12) Inhibition @ 100 μM (%) [2] [%] | other results |
| --- | --- | --- | --- | --- | --- |
| O=C(Cc1ccc(O)c(O)c1)N(O)Cc1ccc(F)cc1 [Compound D3, N-(4-fluorobenzyl)-3,4-dihydroxyphenylacetyl hydroxamic acid] | > 95 | negative effects on growth |  |  | inhibition of LeCCD1 in vitro (in words) [1]: high levels of inhibition of LeCCD1; also recorded: good inhibitors of the 9,10 enzymes in vitro; IC50 [1]: 800 to 900 nM; inhibition of LeNCED1 in vitro (in words) [2]: little or no inhibition of LeNCED1 |
| COc1ccc(C(=O)N(O)Cc2ccc(F)cc2)cc1OC [Compound F4, N-(4-fluorobenzyl)-3,4-dimethoxybenzoyl hydroxamic acid] |  |  | 0 | 0 |  |
| COc1ccc(CC(=O)N(O)Cc2ccc(F)cc2)cc1OC [Compound D6, N-(4-fluorobenzyl)-3,4-dimethoxyphenylacetyl hydroxamic acid] | > 95 | without negative unintended effects on whole plants |  |  | relative inhibition of LeCCD1a in E. coli (in words) [4]: relatively weaker inhibition activity; branching phenotype of whole plants (in words) [3]: bushy appearance; also recorded: largest effect on whole Arabidopsis plants, giving the greatest number of side branches |
| O=C(Cc1ccc(O)cc1)N(O)Cc1ccc(F)cc1 [Compound D2, N-(4-fluorobenzyl)-4-hydroxyphenylacetyl hydroxamic acid] | > 95 | without negative unintended effects on whole plants |  |  | IC50 [1]: 800 to 900 nM; branching phenotype of whole plants (in words) [3]: bushy appearance |
| COc1ccc(CCC(=O)N(O)Cc2ccccc2)cc1 [Compound D9, N-benzyl-4-methoxyphenylpropionyl hydroxamic acid] | > 95 |  |  |  |  |
| COc1ccc(C=CC(=O)NO)cc1OC [Compound D12, 3,4-Dimethoxyphenylpropenoyl hydroxamic acid] |  |  | 26 | 11 |  |
| COc1ccc(CC(=O)N(O)Cc2ccccc2)cc1OC [Compound D5, N-benzyl-3,4-dimethoxyphenylacetyl hydroxamic acid] | > 95 | without negative unintended effects on whole plants |  |  | relative inhibition of LeCCD1a in E. coli (in words) [4]: relatively weaker inhibition activity; branching phenotype of whole plants (in words) [3]: bushy appearance; also recorded: largest effect on whole Arabidopsis plants, giving the greatest number of side branches |
| COc1ccc(CCC(=O)N(O)Cc2ccccc2)cc1OC [Compound D8, N-benzyl-3,4-dimethoxyphenylpropionyl hydroxamic acid] |  |  | 61 | 40 | inhibition of LeNCED1 in vitro (in words) [2]: greatest inhibition of NCED in vitro; also recorded: best 11,12 inhibitor |
| CCCCCCCCN(O)C(=O)CCc1ccc(OC)cc1 [Compound D11, N-octyl-4-methoxyphenylpropionyl hydroxamic acid] |  |  | 53 | 15 |  |
| CCCCCCCCN(O)C(=O)CCc1ccc(OC)c(OC)c1 [Compound D10, N-octyl-3,4-dimethoxyphenylpropionyl hydroxamic acid] |  |  | 65 | 14 |  |
| COc1ccc(C=CC(=O)NO)cc1 [Compound D13, 4-Methoxyphenylpropenoyl hydroxamic acid] |  |  | 46 | 13 |  |
